Active and inactive are the calls of the source.
Experiments:
[1] = NIH-3T3 fibroblast cytotoxicity, dose response, cytotoxicity control, cell-based, fluorescence, Alamar Blue, secondary assay (AID 2327); type: functional;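 further: NIH-3T3 mouse fibroblasts cultured with fluconazole at 8 µg/mL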
[2] = target: ATP-dependent molecular chaperone HSP82 (Candida albicans (strain WO-1) (Yeast), UniProt C4YTQ8); assay: loss of DOC-induced GRE-beta-galactosidase reporter signal, dose response, Hsp90 inhibitor project, S. cerevisiae, luminescence (AID 2400); type: functional, cell-based;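 further: beta-galactosidase luminescence from glucocorticoid response element reporter as proxy for Hsp90 function; inhibitor potency where signal loss means Hsp90 inhibition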
[3] = cytotoxicity toward NIH3T3 fibroblasts, dose response, counter-screen, cell-based, ATP luminescence, mouse fibroblasts (AID 2010); type: functional;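 further: cells exposed to compound for about 90 hours before reading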
[4] = cytotoxicity in HEK-293T cells, dose response, cytotoxicity control for TCR NF-kB inhibitor project, luminescence, T-cell screen hits (AID 489026); type: functional, cell-based;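 further: cells exposed to compound about 14 hours before the viability readout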
INS1 = assay: beta cell apoptosis inhibitors, cytokine rescue, dose response, luminescence, retest (AID 449756); type: functional, cell-based; details: Rattus norvegicus;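 further: cell death triggered by IL-1 beta plus TNF-alpha plus IFN-gamma mixture; protective hits raise ATP signal compared with cytokine alone wells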
Streptococcus = assay: Group A Streptococcus viability loss, dose response, counter-screen for streptokinase expression inhibitor project, luminescence, BacTiterGlo (AID 1915); type: functional, organism-based;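 further: potency for reduction of bacterial viability or growth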
HEK293 [5] = assay: cytotoxicity in HEK293T NF-kB-Luc cells, SAR follow-up, cytotoxicity control for NF-kB activator project, cell-based, resazurin fluorescence (AID 493251); type: functional
[6] = target: T1, Serine/threonine-protein phosphatase (Candida dubliniensis (strain CD36 / CBS 7987 / NCPF 3949 / NRRLY-17841) (Yeast), UniProt B9W6M3); assay: calcineurin pathway inhibitors in yeast reporter, dose response, S. cerevisiae, CDRE-lacZ, luminescence, secondary (AID 2388); type: functional, cell-based;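 further: yeast reporter cells carrying a calcineurin-responsive lacZ construct stimulated with calcium chloride; luminescent beta-galactosidase reporter signal in whole cells rather than isolated phosphatase activity; potency for inhibition where a drop in reporter signal means calcineurin blockade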
T1 sequence (B9W6M3 whole entry): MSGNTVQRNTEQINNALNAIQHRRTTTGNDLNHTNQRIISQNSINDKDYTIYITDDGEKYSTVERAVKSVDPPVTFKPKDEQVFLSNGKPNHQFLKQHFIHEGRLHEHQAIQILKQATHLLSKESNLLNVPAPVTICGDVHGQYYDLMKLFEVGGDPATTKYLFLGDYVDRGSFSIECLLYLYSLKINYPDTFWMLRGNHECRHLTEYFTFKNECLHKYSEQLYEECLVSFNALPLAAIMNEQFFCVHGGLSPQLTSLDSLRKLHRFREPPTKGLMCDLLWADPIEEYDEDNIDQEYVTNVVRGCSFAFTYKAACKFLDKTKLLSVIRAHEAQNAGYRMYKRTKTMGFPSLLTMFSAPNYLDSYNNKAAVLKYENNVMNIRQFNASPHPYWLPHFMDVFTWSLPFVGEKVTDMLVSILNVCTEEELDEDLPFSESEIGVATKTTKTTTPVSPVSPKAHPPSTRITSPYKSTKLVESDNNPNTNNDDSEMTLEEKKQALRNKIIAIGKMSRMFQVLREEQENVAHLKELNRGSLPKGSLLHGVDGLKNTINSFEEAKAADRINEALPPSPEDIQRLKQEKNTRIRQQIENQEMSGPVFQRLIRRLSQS

Exodeoxyribonuclease V = Exodeoxyribonuclease V (Escherichia coli (strain K12), UniProt P04993+P07648+P08394); assay: E. coli RecBCD inhibitors, dose response, counter-screen for AddAB inhibitor project, absorbance, V66 E. coli, mutant T4 phage (AID 492957); type: functional, cell-based, Escherichia coli str. K-12 substr. MG1655
Streptokinase A = target: T2, Streptokinase A (Streptococcus pyogenes serotype M1, UniProt P10520); assay: S. pyogenes streptokinase expression inhibitors, potency, dose response, plasminogen activation absorbance, OD405 (AID 1914); type: functional, Streptococcus pyogenes M1 GAS;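 further: secreted streptokinase activity via plasminogen activation per viability signal from cell pellet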
T2 sequence (P10520 whole entry): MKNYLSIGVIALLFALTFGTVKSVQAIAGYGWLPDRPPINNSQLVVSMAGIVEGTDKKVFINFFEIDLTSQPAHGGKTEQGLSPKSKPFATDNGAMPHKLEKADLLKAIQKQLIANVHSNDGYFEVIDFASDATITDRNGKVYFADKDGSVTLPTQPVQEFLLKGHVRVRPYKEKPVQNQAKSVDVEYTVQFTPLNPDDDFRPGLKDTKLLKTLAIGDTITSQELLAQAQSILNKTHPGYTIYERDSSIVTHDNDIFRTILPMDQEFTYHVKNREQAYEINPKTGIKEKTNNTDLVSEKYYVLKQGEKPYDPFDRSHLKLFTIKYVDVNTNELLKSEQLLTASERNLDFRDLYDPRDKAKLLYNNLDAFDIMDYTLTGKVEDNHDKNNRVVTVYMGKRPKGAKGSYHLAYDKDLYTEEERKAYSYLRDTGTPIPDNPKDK

[7] = inhibitors of intracellular T. cruzi replication, confirmation, NIH3T3 host cells, beta-gal luminescence (AID 2044); type: functional, cell-based;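 further: intracellular parasites grown in NIH/3T3 mouse fibroblasts as host cells; luminescent beta-galactosidase reporter signal from transgenic T. cruzi replicating inside host cells; inhibitors lower the luminescence signal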
[8] = target: Heat shock protein HSP 90-alpha (Homo sapiens, UniProt P07900); type: functional, organism-based
[9] = system: Streptococcus sp. 'group A'; assay: growth inhibition of control SK(-) GAS strain, dose response, counter-screen for streptokinase expression inhibitor project, luminescence, kanamycin, BacTiterGlo, confirmation (AID 1900); type: functional, organism-based
HEK293 [10] = assay: SAR Analysis of small molecule inhibitors of T-cell specific antigen receptor-induced NF-kB activation in a HEK-293T cell line using a luminescence assay - Set 2. [Related pubchem assays (depositor defined):AID435003, AID435012, AID489026]; type: functional, cell-based; details: Homo sapiens
[11] = C. albicans growth with fluconazole, confirmation, fluorescence, retest (AID 2467); type: functional, cell-based
cells [12] = type: functional, cell-based
cells [13] = type: functional, cell-based; remark: listed apart in the source
[14] = Luminescence-based dose response cell-based high throughput screening assay for cytotoxic compounds using the IEC-6 intestinal epithelial cell line. [Related pubchem assays: 1858 (Summary AID.), 1825 (Counterscreen.), 1907 (Confirmation screen.)]; type: functional
HEK293 [15] = assay: SAR Analysis of small molecule inhibitors of T-cell specific antigen receptor-induced NF-kB activation in a HEK-293T cell line using a luminescence assay. [Related pubchem assays (depositor defined):AID435003, AID435012, AID489026]; type: functional, cell-based; details: Homo sapiens
HEK293 [16] = assay: inhibitors of LMP1-driven NF-kB reporter, dose response, cell-based, HEK293, luciferase, cherry-pick (AID 588343); type: functional; details: Homo sapiens
Jurkat [17] = assay: SAR Analysis of small molecule inhibitors of T-cell specific antigen receptor-induced NF-kB activation in a Jurkat cell line using a luminescence assay - Set 2. [Related pubchem assays (depositor defined):AID435003, AID435012, AID465]; type: functional, cell-based; details: Homo sapiens
Jurkat [18] = assay: SAR Analysis of small molecule inhibitors of T-cell specific antigen receptor-induced NF-kB activation in a Jurkat cell line using a luminescence assay. [Related pubchem assays (depositor defined):AID435003, AID435012, AID465]; type: functional, cell-based; details: Homo sapiens
[19] = Counterscreen for AddAB inhibitors: absorbance-based bacterial cell-based high throughput dose response assay for inhibitors of bacterial viability. [Related pubchem assays (depositor defined):AID435030, AID449728, AID449731, AID488942, AID488955, AID488956]; type: functional
[20] = target: T3, Endoribonuclease toxin MazF (Escherichia coli K-12, UniProt P0AE70); assay: MazF toxin RNase activators, dose response, biochemical, fluorescence, single-stranded RNA substrate, uHTS hits (AID 588481); type: functional
T3 sequence (P0AE70 whole entry): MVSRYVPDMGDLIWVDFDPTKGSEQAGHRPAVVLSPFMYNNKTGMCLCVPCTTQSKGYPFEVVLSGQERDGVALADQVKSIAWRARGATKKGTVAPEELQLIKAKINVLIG

Troponin, cardiac muscle = Troponin, cardiac muscle (Homo sapiens, UniProt P19429+P45379+P63316); assay: Fluorescence-based biochemical high throughput dose response assay for activators of the calcium sensitivity of cardiac Regulated Thin Filaments (RTF). [Related pubchem assays (depositor defined):AID493008, AID493018, AID504382, AID504383]; type: protein-complex assay
[21] = target: T3, Endoribonuclease toxin MazF; assay: fluorescent RNA oligo signal without MazF, dose response, counter-screen for MazEF activator project, biochemical, fluorescence, single-stranded RNase substrate (AID 588502); type: functional
[22] = target: T4, Corticotropin-releasing factor receptor 2/Corticotropin-releasing factor-binding protein (Homo sapiens, UniProt P24387+Q13324); assay: activators of CRF receptor 2 with binding protein – uHTS hits, confirmation (AID 602473); type: functional; details: read-out: EC50_Mean
T4 sequence (Q13324 whole entry): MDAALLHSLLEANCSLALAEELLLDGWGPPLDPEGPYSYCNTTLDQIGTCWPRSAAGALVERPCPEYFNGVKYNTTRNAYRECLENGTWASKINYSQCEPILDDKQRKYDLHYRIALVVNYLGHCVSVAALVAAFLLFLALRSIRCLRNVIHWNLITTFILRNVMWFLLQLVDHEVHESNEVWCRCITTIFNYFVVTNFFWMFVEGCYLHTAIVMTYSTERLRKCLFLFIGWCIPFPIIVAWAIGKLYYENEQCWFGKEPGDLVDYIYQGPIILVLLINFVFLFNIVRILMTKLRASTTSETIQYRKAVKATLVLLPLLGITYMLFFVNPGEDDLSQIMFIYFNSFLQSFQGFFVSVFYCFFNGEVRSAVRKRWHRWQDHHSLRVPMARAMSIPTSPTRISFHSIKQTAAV
T4 sequence (P24387 whole entry): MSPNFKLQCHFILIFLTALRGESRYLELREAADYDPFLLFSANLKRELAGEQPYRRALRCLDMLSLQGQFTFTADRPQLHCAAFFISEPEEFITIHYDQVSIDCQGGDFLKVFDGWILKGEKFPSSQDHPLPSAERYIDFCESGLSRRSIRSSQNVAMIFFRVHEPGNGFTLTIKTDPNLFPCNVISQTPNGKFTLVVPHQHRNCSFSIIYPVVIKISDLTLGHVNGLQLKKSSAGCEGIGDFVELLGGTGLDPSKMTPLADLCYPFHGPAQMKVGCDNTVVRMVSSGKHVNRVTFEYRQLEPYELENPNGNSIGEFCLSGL

HeLa = assay: HeLa cell cytotoxicity, dose response, cytotoxicity control, 24 h, cherry-picked samples (AID 504726); type: functional, cell-based; details: Homo sapiens;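 further: potency for cytotoxicity as loss of luminescence signal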
CHO = assay: cytotoxicity in TLR9-MyD88 CHO cells, dose response, cytotoxicity control for TLR9-MyD88 binding inhibitor project, cell-based, luminescence (AID 588339); type: functional, hamster; details: Cricetulus griseus;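 further: CHO cells stably coexpressing TLR9 and MyD88 fusions from primary screen; compound exposure lasted 48 hours before viability readout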
Beta Lactamase = Beta Lactamase (Pseudomonas aeruginosa, UniProt Q932Y6); assay: beta-lactamase reporter inhibitor potency, dose response, artefact control for TLR9-MyD88 binding inhibitor project, BLA reporter cells, FRET fluorescence (AID 588341); type: cell-based;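 further: cell based assay in CHO-K1 cells stably expressing beta-lactamase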
ORF 73 = ORF 73 (Human herpesvirus 8, UniProt O40947); assay: inhibitors of C-LANA binding to LBS DNA, dose response, biochemical, fluorescence polarization, cherry-picked samples (AID 504725); set-up: species or system Human gammaherpesvirus 8;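 further: fluorescence polarization of a labeled DNA duplex reporting LANA DNA binding; potency is for inhibitors that block LANA binding to the DNA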
Ephrin type-A receptor 4 = Ephrin type-A receptor 4 (Mus musculus, UniProt Q03137); assay: inhibitors of EphA4 binding to KYL peptide, primary screen, biochemical, colorimetric, mouse EphA4 (AID 689); type: functional
Keap1/Nrf2 = Keap1/Nrf2 (Homo sapiens, UniProt Q14145); assay: Keap1-Nrf2 protein-protein interaction inhibitors, dose response, biochemical, fluorescence polarization, cherry-picked samples (AID 588683)
Chain of Keap1/Nrf2 (Q16236 whole entry): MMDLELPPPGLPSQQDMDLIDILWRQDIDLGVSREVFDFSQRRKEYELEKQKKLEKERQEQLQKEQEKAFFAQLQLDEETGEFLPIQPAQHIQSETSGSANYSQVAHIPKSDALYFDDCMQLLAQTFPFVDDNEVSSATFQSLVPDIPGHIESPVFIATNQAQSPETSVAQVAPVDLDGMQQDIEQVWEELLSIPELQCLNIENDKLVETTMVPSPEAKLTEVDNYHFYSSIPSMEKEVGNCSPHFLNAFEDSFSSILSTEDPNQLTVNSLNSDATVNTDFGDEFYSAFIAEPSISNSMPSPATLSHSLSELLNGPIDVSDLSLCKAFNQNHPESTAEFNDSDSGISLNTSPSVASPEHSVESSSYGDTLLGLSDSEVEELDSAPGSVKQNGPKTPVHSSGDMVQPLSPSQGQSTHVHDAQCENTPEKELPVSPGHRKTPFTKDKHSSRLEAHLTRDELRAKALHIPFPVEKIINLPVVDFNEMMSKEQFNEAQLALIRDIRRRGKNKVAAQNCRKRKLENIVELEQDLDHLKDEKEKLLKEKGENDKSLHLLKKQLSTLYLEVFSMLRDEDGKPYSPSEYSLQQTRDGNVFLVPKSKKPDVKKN
Chain of Keap1/Nrf2 (Q14145 whole entry): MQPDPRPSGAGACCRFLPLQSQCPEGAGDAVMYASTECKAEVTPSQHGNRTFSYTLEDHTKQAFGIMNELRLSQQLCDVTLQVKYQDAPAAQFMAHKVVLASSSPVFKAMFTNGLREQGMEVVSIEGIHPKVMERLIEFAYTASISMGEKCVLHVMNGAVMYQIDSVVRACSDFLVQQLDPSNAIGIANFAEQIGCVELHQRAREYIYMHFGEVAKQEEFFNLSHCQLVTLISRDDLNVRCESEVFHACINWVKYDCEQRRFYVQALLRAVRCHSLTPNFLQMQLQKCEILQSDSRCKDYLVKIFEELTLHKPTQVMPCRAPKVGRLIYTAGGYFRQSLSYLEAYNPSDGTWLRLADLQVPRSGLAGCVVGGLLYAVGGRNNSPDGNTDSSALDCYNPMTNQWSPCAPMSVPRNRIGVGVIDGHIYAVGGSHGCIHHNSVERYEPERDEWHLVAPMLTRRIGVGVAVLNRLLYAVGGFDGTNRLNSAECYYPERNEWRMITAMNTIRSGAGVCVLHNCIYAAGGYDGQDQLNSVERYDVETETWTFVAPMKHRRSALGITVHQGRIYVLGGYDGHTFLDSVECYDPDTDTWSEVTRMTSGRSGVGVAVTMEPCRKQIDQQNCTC

Chain of Exodeoxyribonuclease V (P04993 whole entry): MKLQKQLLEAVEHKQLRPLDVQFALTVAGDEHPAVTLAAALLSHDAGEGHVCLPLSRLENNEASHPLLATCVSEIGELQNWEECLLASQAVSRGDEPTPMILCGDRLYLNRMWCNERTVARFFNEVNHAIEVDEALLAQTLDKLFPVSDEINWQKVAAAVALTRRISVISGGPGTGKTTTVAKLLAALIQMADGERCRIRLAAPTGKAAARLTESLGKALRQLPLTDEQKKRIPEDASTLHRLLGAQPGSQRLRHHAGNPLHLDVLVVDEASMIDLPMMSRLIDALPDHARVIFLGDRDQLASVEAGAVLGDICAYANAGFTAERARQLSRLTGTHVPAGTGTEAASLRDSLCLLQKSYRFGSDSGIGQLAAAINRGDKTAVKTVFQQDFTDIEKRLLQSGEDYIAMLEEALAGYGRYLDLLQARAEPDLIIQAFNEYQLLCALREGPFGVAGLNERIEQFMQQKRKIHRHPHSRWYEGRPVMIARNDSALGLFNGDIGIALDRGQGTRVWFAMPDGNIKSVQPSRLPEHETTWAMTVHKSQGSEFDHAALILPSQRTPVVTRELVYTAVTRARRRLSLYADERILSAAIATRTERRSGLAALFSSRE
Chain of Exodeoxyribonuclease V (P07648 whole entry): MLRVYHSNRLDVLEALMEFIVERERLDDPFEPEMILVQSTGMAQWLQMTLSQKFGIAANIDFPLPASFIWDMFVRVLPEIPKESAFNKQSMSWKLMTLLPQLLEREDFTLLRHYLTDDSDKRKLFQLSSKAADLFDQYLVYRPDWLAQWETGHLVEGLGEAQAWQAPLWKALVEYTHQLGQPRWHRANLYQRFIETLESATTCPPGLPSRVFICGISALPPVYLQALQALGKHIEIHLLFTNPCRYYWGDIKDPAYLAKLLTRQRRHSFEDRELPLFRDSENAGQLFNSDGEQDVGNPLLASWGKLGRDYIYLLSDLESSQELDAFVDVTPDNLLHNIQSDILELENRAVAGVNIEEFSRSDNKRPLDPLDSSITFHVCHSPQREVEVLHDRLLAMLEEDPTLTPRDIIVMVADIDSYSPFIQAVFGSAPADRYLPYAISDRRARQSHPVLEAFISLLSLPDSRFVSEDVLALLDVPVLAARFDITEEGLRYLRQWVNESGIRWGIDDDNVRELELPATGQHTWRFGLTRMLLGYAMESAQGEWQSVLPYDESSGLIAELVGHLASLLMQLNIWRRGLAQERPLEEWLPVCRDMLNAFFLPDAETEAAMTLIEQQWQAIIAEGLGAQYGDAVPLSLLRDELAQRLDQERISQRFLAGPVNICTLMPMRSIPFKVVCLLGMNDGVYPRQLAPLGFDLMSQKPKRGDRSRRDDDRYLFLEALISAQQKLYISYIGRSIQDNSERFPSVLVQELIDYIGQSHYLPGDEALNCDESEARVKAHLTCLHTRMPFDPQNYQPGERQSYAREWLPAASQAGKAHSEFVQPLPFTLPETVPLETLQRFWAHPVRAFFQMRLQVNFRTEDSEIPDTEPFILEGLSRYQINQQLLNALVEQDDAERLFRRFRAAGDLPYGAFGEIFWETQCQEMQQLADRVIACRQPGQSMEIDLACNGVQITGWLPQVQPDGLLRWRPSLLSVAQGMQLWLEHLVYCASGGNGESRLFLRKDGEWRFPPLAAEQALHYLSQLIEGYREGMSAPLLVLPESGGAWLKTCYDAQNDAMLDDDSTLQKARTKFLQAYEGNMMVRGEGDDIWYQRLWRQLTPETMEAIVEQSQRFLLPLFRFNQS
Chain of Exodeoxyribonuclease V (P08394 whole entry): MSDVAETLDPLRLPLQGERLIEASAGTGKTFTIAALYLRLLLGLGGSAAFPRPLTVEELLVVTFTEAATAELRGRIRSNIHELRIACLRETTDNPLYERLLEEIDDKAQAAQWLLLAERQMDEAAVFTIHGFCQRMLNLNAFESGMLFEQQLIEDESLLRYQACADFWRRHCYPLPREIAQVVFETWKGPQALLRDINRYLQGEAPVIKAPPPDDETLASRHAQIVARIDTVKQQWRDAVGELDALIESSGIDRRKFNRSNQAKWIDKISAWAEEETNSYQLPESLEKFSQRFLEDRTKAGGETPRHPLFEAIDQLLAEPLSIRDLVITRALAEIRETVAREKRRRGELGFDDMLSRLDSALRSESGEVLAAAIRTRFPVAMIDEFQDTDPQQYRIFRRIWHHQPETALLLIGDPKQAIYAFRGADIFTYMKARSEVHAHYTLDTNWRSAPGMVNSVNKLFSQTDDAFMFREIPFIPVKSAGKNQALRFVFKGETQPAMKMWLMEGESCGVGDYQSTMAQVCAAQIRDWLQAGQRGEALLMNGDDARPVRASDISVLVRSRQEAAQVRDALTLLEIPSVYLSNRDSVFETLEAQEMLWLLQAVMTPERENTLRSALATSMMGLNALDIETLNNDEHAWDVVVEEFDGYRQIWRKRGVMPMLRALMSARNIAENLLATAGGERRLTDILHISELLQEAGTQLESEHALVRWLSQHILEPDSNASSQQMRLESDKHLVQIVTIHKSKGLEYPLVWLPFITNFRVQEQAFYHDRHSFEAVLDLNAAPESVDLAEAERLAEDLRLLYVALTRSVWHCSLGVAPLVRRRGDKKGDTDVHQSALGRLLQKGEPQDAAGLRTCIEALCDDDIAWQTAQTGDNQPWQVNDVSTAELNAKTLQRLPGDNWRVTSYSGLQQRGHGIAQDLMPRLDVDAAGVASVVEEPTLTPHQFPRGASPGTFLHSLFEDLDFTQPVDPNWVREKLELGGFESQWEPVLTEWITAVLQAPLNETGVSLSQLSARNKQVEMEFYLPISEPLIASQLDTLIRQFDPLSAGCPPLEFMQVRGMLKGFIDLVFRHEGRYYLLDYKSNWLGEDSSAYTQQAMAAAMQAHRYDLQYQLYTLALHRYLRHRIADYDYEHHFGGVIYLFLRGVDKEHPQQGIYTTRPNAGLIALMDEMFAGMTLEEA
Chain of Beta Lactamase (Q932Y6 whole entry): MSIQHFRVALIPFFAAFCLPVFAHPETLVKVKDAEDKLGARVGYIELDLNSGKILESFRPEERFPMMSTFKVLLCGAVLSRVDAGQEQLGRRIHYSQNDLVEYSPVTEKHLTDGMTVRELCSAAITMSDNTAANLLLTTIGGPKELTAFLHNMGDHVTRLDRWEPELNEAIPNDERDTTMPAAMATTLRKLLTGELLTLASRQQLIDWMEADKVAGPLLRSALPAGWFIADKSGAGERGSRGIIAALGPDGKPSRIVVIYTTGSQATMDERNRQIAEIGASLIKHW

For `CCCC(=O)NC(c1ccc(C)cc1)c1ccc2cccnc2c1O` (centres undefined), the EC50 [1] was 23.6 µM (inconclusive), the EC50 [2] was > 150 µM (inactive) and the EC50 [3] was 0.588 µM (active). For the same compound, the IC50 [4] was > 80 µM (inactive), the AC50 (INS1) was 0.535 µM (active) and the EC50 (Streptococcus) was 14.7 µM (active). For the same compound, the IC50 (HEK293 [5]; Homo sapiens, HEK293) was 8.08 µM (active), the IC50 (HEK293 [5]; hek293) was 5.93 µM (active) and the EC50 [6] was > 180 µM (inactive). The IC50 (Exodeoxyribonuclease V) was > 119 µM (inactive), the EC50 (Streptokinase A) was > 150 µM (not active) and the EC50 [7] was 0.348 µM (active). The AC50 [8] was 3.35 µM (active), the EC50 [9] was 6.65 µM (active) and the IC50 (HEK293 [10]) was 6.36 µM (active). For the same compound, the EC50 [11] was 0.449 µM (active), the EC50 (cells [12]) was > 350 µM (not active) and the EC50 (cells [13]) was 6.34 µM (active). The IC50 [14] was 1.47 µM (active), the IC50 (HEK293 [15]) was 6.94 µM (active) and the AC50 (HEK293 [16]) was 4.94 µM (active). For the same compound, the IC50 (Jurkat [17]) was 2.52 µM (active), the IC50 (Jurkat [18]) was 3.79 µM (active) and the IC50 [19] was > 119 µM (inactive).
With `CCn1nc(-c2ccccc2)c2nc3ccccc3nc21` the EC50 [20] was > 99 µM (inactive), the EC50 (Troponin, cardiac muscle) was 5.55 µM (active) and the EC50 [21] was 84 µM (inactive). For the same compound, the EC50 [22] was 6.66 µM (active), the AC50 (HeLa) was 96.5 µM (active) and the IC50 (CHO) was > 49.7 µM (inactive). The IC50 (Beta Lactamase) was 5.36 µM (active), the AC50 (ORF 73) was 30.9 µM (active) and the IC50 (Ephrin type-A receptor 4) was 5.45 µM (active). The AC50 (Keap1/Nrf2) was 39.5 µM (active).

From ChEMBL document CHEMBL1201862, “PubChem BioAssay data set” (2004)
